Results as given in patent US11155558B2, “Dual mode of action soluble guanylate cyclase activators and phosphodiesterase inhibitors and uses thereof” (TOPADUR PHARMA AG, priority 2017, dated 2021).

Tests used:
[1] = Measurements of human plasma protein binding; assay type: in vitro ADME; conditions: for recovery: human
Procedure: An aliquot of 200 μL of human plasma containing test compound was spiked into donor well (red chamber) of the insert. 350 μL of PBS was spiked into receiver well (white chamber) of the insert.
The samples were matrix equilibrated with opposite matrix (25 μL of plasma/buffer sample was matched with 25 μL of blank buffer/plasma). Matrix matched samples were precipitated with 200 μL of acetonitrile containing internal standard. Samples were vortexed at 1000 rpm for 5 min and centrifuged at 4000 rpm for 10 min. Supernatant was separated, diluted 2 fold with water and analysed in LC-MS/MS. TO control samples were processed immediately after the preparation of plasma working stock solutions. These samples serves as a measure for calculating the percentage recovery of test compounds.

[2] = target: PDE5 enzyme isolated from human platelets (Homo sapiens (Human), UniProt O76074); test: PDE5 assay (Example 109), formation of 5′GMP from cGMP, SPA; conditions: for % inhibition at 5.0E−09 M: percent inhibition of control enzyme activity at 5.0E−09 M, assay of Example 109;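 as to all read-outs here: tritiated 5′GMP counted by scintillation after SPA bead capture, enzyme reaction run 60 min at 22 °C, basal control is the mixture without enzyme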
Procedure: Evaluation of the effects of compounds of the present invention on the activity of the human phosphodiesterase-5 quantified by measuring the formation of 5′GMP from cGMP using PDE5 enzyme isolated from human platelets.
Thereafter, the reaction is initiated by addition of the enzyme and the mixture is incubated for 60 min at 22° C.
For basal control measurements, the enzyme is omitted from the reaction mixture. Following incubation SPA beads are added. After 20 min at 22° C. under shaking, the amount of [3H]5′GMP is quantified with a scintillation counter (Topcount, Packard).
The standard inhibitory reference compound is dipyridamole, which is tested in each experiment at several concentrations to obtain an inhibition curve from which its IC50 value is calculated.

For `CCCc1cn(C)c2c(=O)[nH]c(-c3cc(S(=O)(=O)N4CCC(CCO[N+](=O)[O-])CC4)ccc3OCC)nc12` [Compound 2c, 2-(1-((4-ethoxy-3-(5-methyl-4-oxo-7-propyl-4,5-dihydro-3H-pyrrolo[3,2-d]pyrimidin-2-yl)phenyl)sulfonyl)piperidin-4-yl)ethyl nitrate], the “% Bound in Plasma” value [1] was 99.65%, the fraction unbound [1] was 0.0035 and the recovery [1] was 105%.

In the case of `CCCOc1ccc(S(=O)(=O)N2CCC(CCO)CC2)cc1-c1nc2c(CCC)cn(CC)c2c(=O)[nH]1` [Compound 5, 5-ethyl-2-(5-((4-(2-hydroxyethyl)piperidin-1-yl)sulfonyl)-2-propoxyphenyl)-7-propyl-3,5-dihydro-4H-pyrrolo[3,2-d]pyrimidin-4-one], the “% Bound in Plasma” value [1] is reported as 99.87%, the fraction unbound [1] is reported as 0.0013 and the recovery [1] is reported as 102%. The IC50 [2] was 0.29 nM, the “PDE5 inhibition (in words)” value ([2]; human cGMP-specific PDE5, refers to Table 1) was “much more potent PDE5 inhibitor” and the “% inhibition at 5.0E−09 M” value [2] was 74.4%.

For `CCCc1cn(C)c2c(=O)[nH]c(-c3cc(S(=O)(=O)N4CCC(CCO)CC4)ccc3OCC)nc12` [Compound 14, 2-(2-ethoxy-5-((4-(2-hydroxyethyl)piperidin-1-yl)sulfonyl)phenyl)-5-methyl-7-propyl-3,5-dihydro-4H-pyrrolo[3,2-d]pyrimidin-4-one], the “% Bound in Plasma” value [1] was 99.43%, the fraction unbound [1] was 0.0057 and the recovery [1] was 98.9%. It also gave an IC50 [2] of 0.3 nM.

In the case of `CCCc1cn(C)c2c(=O)[nH]c(-c3cc(S(=O)(=O)N4CCN(CCO)CC4)ccc3OCC)nc12` [Compound 20, 2-(2-ethoxy-5-((4-(2-hydroxyethyl)piperazin-1-yl)sulfonyl)phenyl)-5-methyl-7-propyl-3,5-dihydro-4H-pyrrolo[3,2-d]pyrimidin-4-one], the “% inhibition at 5.0E−09 M” value [2] is reported as 41.1%.

For `CCCc1cn(C)c2c(=O)[nH]c(-c3cc(S(=O)(=O)N4CCN(CCCO)CC4)ccc3OCC)nc12` [Compound 23, 2-(2-ethoxy-5-((4-(3-hydroxypropyl)piperazin-1-yl)sulfonyl)phenyl)-5-methyl-7-propyl-3,5-dihydro-4H-pyrrolo[3,2-d]pyrimidin-4-one], the “% inhibition at 5.0E−09 M” value [2] was 36.7%.

For `CCCOc1ccc(S(=O)(=O)N2CCC(CCO)CC2)cc1-c1nc2c(CCC)cn(C)c2c(=O)[nH]1` [Compound 29, 2-(5-((4-(2-hydroxyethyl)piperidin-1-yl)sulfonyl)-2-propoxyphenyl)-5-methyl-7-propyl-3,5-dihydro-4H-pyrrolo[3,2-d]pyrimidin-4-one], the “% inhibition at 5.0E−09 M” value [2] was 46.4%.

With `CCCOc1ccc(S(=O)(=O)N2CCN(CCO)CC2)cc1-c1nc2c(CCC)cn(C)c2c(=O)[nH]1` [Compound 32, 2-(5-((4-(2-hydroxyethyl)piperazin-1-yl)sulfonyl)-2-propoxyphenyl)-5-methyl-7-propyl-3,5-dihydro-4H-pyrrolo[3,2-d]pyrimidin-4-one] the “% inhibition at 5.0E−09 M” value [2] was 53.4%.

For `CC(=O)CC(c1ccccc1)c1c(O)c2ccccc2oc1=O` (stereo not shown) [Warfarin, reference compound], the “% Bound in Plasma” value [1] was 97.28%, the fraction unbound [1] was 0.0272 and the recovery [1] was 101%.

With `CCCOc1ccc(S(=O)(=O)N2CCN(CCO)CC2)cc1-c1nc2c(CCC)cn(CC)c2c(=O)[nH]1` [mirodenafil, 5-ethyl-2-(5-((4-(2-hydroxyethyl)piperazin-1-yl)sulfonyl)-2-propoxyphenyl)-7-propyl-3,5-dihydro-4H-pyrrolo[3,2-d]pyrimidin-4-one, reference compound] the “% Bound in Plasma” value [1] was 98.94%, the fraction unbound [1] was 0.0106 and the recovery [1] was 99.2%. For the same compound, the IC50 [2] was 0.34 nM and the “% inhibition at 5.0E−09 M” value [2] was 64.9%.

With `CCCc1nn(C)c2c(=O)[nH]c(-c3cc(S(=O)(=O)N4CCN(C)CC4)ccc3OCC)nc12` [sildenafil, reference compound] the “% Bound in Plasma” value [1] was 96.41%, the fraction unbound [1] was 0.0359 and the recovery [1] was 104%.
